Measured values from patent US8399444B2, “Bicyclic imidazole as DP1 receptor antagonists” (GlaxoSmithKline Intellectual Property Development Ltd., priority 2008, dated 2013).
“And” between values parts separate entries of the source, which are not always exact repeats. Equal values may be shown once. Where a name gives a salt, the structure may show the parent alone.

Target: T1, Prostanoid DP1 receptor (Homo sapiens, UniProt Q13258)
T1 construct: expressed in transfected cells; host or cells: CHO K1
T1 sequence (Q13258 1-359): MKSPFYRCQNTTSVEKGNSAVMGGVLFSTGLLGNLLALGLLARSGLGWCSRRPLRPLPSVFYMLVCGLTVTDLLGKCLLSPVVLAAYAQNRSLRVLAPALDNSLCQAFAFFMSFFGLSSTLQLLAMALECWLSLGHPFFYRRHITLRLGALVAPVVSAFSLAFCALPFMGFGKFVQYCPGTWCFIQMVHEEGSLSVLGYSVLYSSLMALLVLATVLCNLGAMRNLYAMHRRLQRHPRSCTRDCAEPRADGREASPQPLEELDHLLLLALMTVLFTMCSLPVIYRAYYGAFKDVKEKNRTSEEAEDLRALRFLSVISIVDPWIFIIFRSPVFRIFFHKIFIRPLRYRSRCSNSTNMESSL
Assay: Measurement of cAMP using TR-FRET LANCE assay: Prostanoid DP1
Type: cell-based
Conditions: CHO cells expressing DP1 receptor, antagonism of PGD2 (EC80) cAMP response; read-out: pKi value (converted)
Description: CHO K1 cells, stably expressing the Prostanoid DP1 receptor, were maintained in culture in DMEM/F12, supplemented with 5% FBS, 2 mM L-glutamine, 400 μg/mL hygromycin B in 95%: 5% air: CO2 at 37° C. Following harvest from culture, cells were centrifuged at 250 g at 4° C. for 10 minutes and re-suspended in ice cold dialysed FCS. Once the cells were in mono-suspension they were slowly mixed with an equal volume of ice cold 80% dialysed FCS: 20% DMSO (pre-mixed and chilled several hours earlier). The cells were then aliquoted into 1 mL tubes within a 96 well block (pre-cooled to 4° C.). Once sealed, the tubes were frozen in a controlled rate freezer. The frozen cells were then transferred to a −140° C. freezer for long term storage.
Measurement of cAMP Using TR-FRET LANCE™ Assays: Prostanoid DP1
The potency of the compounds were determined using a LANCE™ cAMP assay kit as per the kit instructions. Briefly, CHO cells expressing DP1 receptor were thawed at 37° C., diluted in PBS and centrifuged at 1000 RPM for 5 minutes. Cells were then re-suspended (2 million cells/mL) in stimulation buffer (HBSS containing 0.01% BSA, 500 μM FAC IBMX, 5 mmol/L HEPES adjusted to pH 7.4 with KOH.
Briefly, cells were added (10,000 cells/well at 5 μL addition) to low volume white Greiner polypropylene 384-well plate assay plates containing 0.1 μl test compound. Following a 15 minute incubation at room temperature, 5 μl of antibody solution (stimulation buffer containing Alexia fluor 647) containing PGD2 at twice the determined EC80 concentration was added. Plates were incubated for a further 30 minutes at room temperature then detection mixture was added (kit components; detection buffer, europiumW8044-labelled streptavidin and biotin cAMP at 10 μl/well). Plates were covered and incubated the room temperature for 1 hour before reading on a Viewlux Microplate Imager using TR-FRET label settings.
All compounds were dissolved in DMSO at a concentration of 10 mM and were prepared in 100% DMSO using a 1 in 4 dilution step to provide 11-point concentration—response curves. The dilutions were transferred to the assay plates ensuring that the DMSO concentration was constant across the plate at 1% for all assays.
All data were normalised to the mean of 16 high and 16 low control wells on each plate. A four parameter curve fit of the following form was then applied.
Where a is the minimum, b is the Hill slope, c is the XC50, and d is the maximum. Data are presented as the mean pXC50 (negative log 10 of the molar XC50) with the standard deviation (SD) of number of tests in the experiments.

Compound | Ki
CC(C)c1nc2c(n1Cc1ccc(Cl)cc1)C(CC(=O)O)CCCC2 (stereo not drawn) [Example 1, [3-[(4-chlorophenyl)methyl]-2-(1-methylethyl)-3,4,5,6,7,8-hexahydrocyclohepta[d]imidazol-4-yl]acetic acid] | ≤ 10 nM
CC(C)c1nc2c(n1Cc1ccc(Cl)c(Cl)c1)C(OCC(=O)O)CCCC2 (single isomer, unassigned; isomer 2) [Example 37, {[3-[(3,4-dichlorophenyl)methyl]-2-(1-methylethyl)-3,4,5,6,7,8-hexahydrocyclohepta[d]imidazol-4-yl]oxy}acetic acid ammonia salt (Isomer 2)] | ≤ 10 nM
CC(C)c1nc2c(n1Cc1ccc(Cl)c(Cl)c1)C(OCC(=O)O)CCCC2 (stereo not drawn) [Example 34, {[3-[(3,4-dichlorophenyl)methyl]-2-(1-methylethyl)-3,4,5,6,7,8-hexahydrocyclohepta[d]imidazol-4-yl]oxy}acetic acid ammonia salt] | ≤ 10 nM
CC(C)c1nc2c(n1Cc1ccc(Cl)c(Cl)c1)C(CC(=O)O)CC2 (stereo not drawn) [Example 9, [3-[(3,4-dichlorophenyl)methyl]-2-(1-methylethyl)-3,4,5,6-tetrahydrocyclopenta[d]imidazol-4-yl]acetic acid ammonia salt] | ≤ 10 nM
CC(C)c1nc2c(n1Cc1ccc(Cl)cc1)C(OCC(=O)O)CCC2 (single isomer, unassigned; isomer 2) [Example 26, {[1-[(4-chlorophenyl)methyl]-2-(1-methylethyl)-4,5,6,7-tetrahydro-1H-benzimidazol-7-yl]oxy}acetic acid formic acid salt (isomer 2)] | ≤ 10 nM
CC(C)c1nc2c(n1[C@H](C)c1ccccc1)C(CC(=O)O)CCC2 (stereo partly drawn) [Example 31, {2-(1-methylethyl)-1-[(1R)-1-phenylethyl]-4,5,6,7-tetrahydro-1H-benzimidazol-7-yl}acetic acid ammonia salt] | ≤ 100 nM
CC(C)(C)c1nc2c(n1Cc1ccc(Cl)cc1)C(CC(=O)O)CCCC2 (stereo not drawn) [Example 6, [3-[(4-chlorophenyl)methyl]-2-(1,1-dimethylethyl)-3,4,5,6,7,8-hexahydrocyclohepta[d]imidazol-4-yl]acetic acid] | ≤ 10 nM
CC(C)c1nc2c(n1Cc1ccc(Cl)cc1)C(OCC(=O)O)CCCC2 (stereo not drawn) [Example 2] | ≤ 100 nM
CC(C)c1nc2c(n1Cc1ccc(Cl)c(Cl)c1)C(CC(=O)O)CCCC2 (stereo not drawn) [Example 3, [3-[(3,4-dichlorophenyl)methyl]-2-(1-methylethyl)-3,4,5,6,7,8-hexahydrocyclohepta[d]imidazol-4-yl]acetic acid ammonia salt] | ≤ 10 nM
CC(C)c1nc2c(n1Cc1ccc(Cl)cc1Cl)C(CC(=O)O)CCC2 (stereo not drawn) [Example 18, [1-(2,4-dichlorobenzyl)-2-isopropyl-4,5,6,7-tetrahydro-1H-benzimidazol-7-yl]acetic acid ammonia salt] | ≤ 100 nM
CC(C)c1nc2c(n1Cc1ccc(Cl)c(Cl)c1)C(OCC(=O)O)CCCC2 (single isomer, unassigned; isomer 1) [Example 36, {[3-[(3,4-dichlorophenyl)methyl]-2-(1-methylethyl)-3,4,5,6,7,8-hexahydrocyclohepta[d]imidazol-4-yl]oxy}acetic acid ammonia salt (Isomer 1)] | ≤ 100 nM
CC(C)c1nc2c(n1Cc1ccc(Cl)c(Cl)c1)C(CC(=O)O)CC2 (single isomer, unassigned; isomer 1) [Example 10, (+)-[3-[(3,4-dichlorophenyl)methyl]-2-(1-methylethyl)-3,4,5,6-tetrahydrocyclopenta[d]imidazol-4-yl]acetic acid ammonia salt (Isomer 1)] | ≤ 10 nM
CC(C)c1nc2c(n1Cc1ccc(Cl)cc1)C(CC(=O)O)CCC2 (single isomer, unassigned; isomer 2) [Example 17, (−)-[1-[(4-chlorophenyl)methyl]-2-(1-methylethyl)-4,5,6,7-tetrahydro-1H-benzimidazol-7-yl]acetic acid ammonia salt (Isomer 2)] | ≤ 10 nM
CC(C)c1nc2c(n1Cc1ccc(Cl)cc1)C(CC(=O)O)CCC2 (stereo not drawn) [Example 15, [1-[(4-chlorophenyl)methyl]-2-(1-methylethyl)-4,5,6,7-tetrahydro-1H-benzimidazol-7-yl]acetic acid] | ≤ 10 nM
CC(C)c1nc2c(n1Cc1ccc(Cl)cc1)C(CC(=O)O)CC2 (stereo not drawn) [Example 7, [3-[(4-chlorophenyl)methyl]-2-(1-methylethyl)-3,4,5,6-tetrahydrocyclopenta[d]imidazol-4-yl]acetic acid ammonia salt] | ≤ 100 nM
CC(C)c1nc2c(n1Cc1ccc(Cl)c(Cl)c1)C(CC(=O)O)CCC2 (stereo not drawn) [Example 29, [1-[(3,4-dichlorophenyl)methyl]-2-(1-methylethyl)-4,5,6,7-tetrahydro-1H-benzimidazol-7-yl]acetic acid trifluoroacetic acid salt] | ≤ 10 nM
CC(C)(C)c1nc2c(n1Cc1ccc(Cl)cc1)C(CC(=O)O)CCC2 (stereo not drawn) [Example 23, [1-[(4-chlorophenyl)methyl]-2-(1,1-dimethylethyl)-4,5,6,7-tetrahydro-1H-benzimidazol-7-yl]acetic acid, formic acid salt] | ≤ 100 nM
CC(C)c1nc2c(n1Cc1ccc(Cl)c(Cl)c1)C(CC(=O)O)CCC2 (single isomer, unassigned; isomer 2) [Example 20, (−)-[1-[3,4-dichlorophenyl)methyl]-2-(1-methylethyl)-4,5,6,7-tetrahydro-1H-benzimidazol-7-yl]acetic acid ammonia salt (Isomer 2)] | ≤ 100 nM and ≤ 10 nM and ~2 nM
O=C(O)CC1CCCc2nc(C3CCCC3)n(Cc3ccc(Cl)cc3)c21 (stereo not drawn) [Example 22, {1-[(4-chlorophenyl)methyl]-2-cyclopentyl-4,5,6,7-tetrahydro-1H-benzimidazol-7-yl}acetic acid ammonia salt] | ≤ 100 nM
CC(C)c1nc2c(n1Cc1ccc(Cl)c(Cl)c1)C(OCC(=O)O)CCCC2 (stereo not drawn) [Example 35, {[3-[(3,4-dichlorophenyl)methyl]-2-(1-methylethyl)-3,4,5,6,7,8-hexahydrocyclohepta[d]imidazol-4-yl]oxy}acetic acid hydrochloride] | ≤ 100 nM
CC(C)c1nc2c(n1Cc1ccc(Cl)cc1)C(CC(=O)O)CCC2 (stereo not drawn) [Example 27, [1-[(4-chlorophenyl)methyl]-2-(1-methylethyl)-4,5,6,7-tetrahydro-1H-benzimidazol-7-yl]acetic acid ammonia salt] | ≤ 100 nM
CC(C)c1nc2c(n1Cc1ccc(Cl)cc1)C(OCC(=O)O)CCC2 (stereo not drawn) [Example 24, {[1-[(4-chlorophenyl)methyl]-2-(1-methylethyl)-4,5,6,7-tetrahydro-1H-benzimidazol-7-yl]oxy}acetic acid, formic acid salt] | ≤ 100 nM
CC(C)c1nc2c(n1Cc1ccc(Cl)c(Cl)c1)[C@@H](CC(=O)O)CCC2 [Example 40, [(7R)-1-[(3,4-dichlorophenyl)methyl]-2-(1-methylethyl)-4,5,6,7-tetrahydro-1H-benzimidazol-7-yl]acetic acid] | ≤ 100 nM and ≤ 10 nM and ~2.51 nM
CC(C)c1nc2c(n1Cc1ccc(Cl)cc1)C(CC(=O)O)CCC2 (single isomer, unassigned; isomer 2) [Example 32, (−)-[1-[(4-chlorophenyl)methyl]-2-(1-methylethyl)-4,5,6,7-tetrahydro-1H-benzimidazol-7-yl]acetic acid (Isomer 2)] | ≤ 10 nM
